For seven compounds, mutagenic call results are on record in PubChem BioAssay AID1259407 (Chemical Carcinogenesis Research Information System (CCRIS), 2018).

Activity calls are given as the source filed them. How the calls were made is not given here.

This series relates to CCRIS mutagenicity, Ames/micronucleus/aberration tests. As to the kind of experiment: CCRIS mutagenicity studies.
[1] abbreviates: Test System: AMES SALMONELLA TYPHIMURIUM, Strain/Indicator: TA97, Metabolic Activation: NONE, Method: PREINCUBATION
[2] abbreviates: Test System: AMES SALMONELLA TYPHIMURIUM, Strain/Indicator: TA100, Metabolic Activation: NONE, Method: STANDARD PLATE.

Regarding `CCCCC(CC)COCCC#N` (stereo not drawn), the mutagenic call runs as follows: (Test System: AMES SALMONELLA TYPHIMURIUM, Strain/Indicator: TA97, Metabolic Activation: HAMSTER, LIVER, S-9, AROCLOR 1254 (10%), Method: PREINCUBATION) “inactive; negative”; (Test System: AMES SALMONELLA TYPHIMURIUM, Strain/Indicator: TA97, Metabolic Activation: HAMSTER, LIVER, S-9, AROCLOR 1254 (30%), Method: PREINCUBATION) “inactive; negative”; under setting [1], “inactive; negative”; (Test System: AMES SALMONELLA TYPHIMURIUM, Strain/Indicator: TA97, Metabolic Activation: RAT, LIVER, S-9, AROCLOR 1254 (10%), Method: PREINCUBATION) “inactive; negative”; (Test System: AMES SALMONELLA TYPHIMURIUM, Strain/Indicator: TA97, Metabolic Activation: RAT, LIVER, S-9, AROCLOR 1254 (30%), Method: PREINCUBATION) “inactive; negative”; (Test System: AMES SALMONELLA TYPHIMURIUM, Strain/Indicator: TA98, Metabolic Activation: HAMSTER, LIVER, S-9, AROCLOR 1254 (10%), Method: PREINCUBATION) “inactive; negative”. The mutagenic call (Test System: AMES SALMONELLA TYPHIMURIUM, Strain/Indicator: TA98, Metabolic Activation: HAMSTER, LIVER, S-9, AROCLOR 1254 (30%), Method: PREINCUBATION) was “inactive; negative”; the mutagenic call (Test System: AMES SALMONELLA TYPHIMURIUM, Strain/Indicator: TA98, Metabolic Activation: NONE, Method: PREINCUBATION) is “inactive; negative”; the mutagenic call (Test System: AMES SALMONELLA TYPHIMURIUM, Strain/Indicator: TA98, Metabolic Activation: RAT, LIVER, S-9, AROCLOR 1254 (10%), Method: PREINCUBATION) was “inactive; negative”; the mutagenic call (Test System: AMES SALMONELLA TYPHIMURIUM, Strain/Indicator: TA98, Metabolic Activation: RAT, LIVER, S-9, AROCLOR 1254 (30%), Method: PREINCUBATION) was “inactive; negative”; the mutagenic call (Test System: AMES SALMONELLA TYPHIMURIUM, Strain/Indicator: TA100, Metabolic Activation: HAMSTER, LIVER, S-9, AROCLOR 1254 (10%), Method: PREINCUBATION) was “inactive; negative”; the mutagenic call (Test System: AMES SALMONELLA TYPHIMURIUM, Strain/Indicator: TA100, Metabolic Activation: HAMSTER, LIVER, S-9, AROCLOR 1254 (30%), Method: PREINCUBATION) was “inactive; negative”. The mutagenic call runs as follows: (Test System: AMES SALMONELLA TYPHIMURIUM, Strain/Indicator: TA100, Metabolic Activation: NONE, Method: PREINCUBATION) “inactive; negative”; (Test System: AMES SALMONELLA TYPHIMURIUM, Strain/Indicator: TA100, Metabolic Activation: RAT, LIVER, S-9, AROCLOR 1254 (10%), Method: PREINCUBATION) “inactive; negative”; (Test System: AMES SALMONELLA TYPHIMURIUM, Strain/Indicator: TA100, Metabolic Activation: RAT, LIVER, S-9, AROCLOR 1254 (30%), Method: PREINCUBATION) “inactive; negative”; (Test System: AMES SALMONELLA TYPHIMURIUM, Strain/Indicator: TA1535, Metabolic Activation: HAMSTER, LIVER, S-9, AROCLOR 1254 (10%), Method: PREINCUBATION) “inactive; negative”; (Test System: AMES SALMONELLA TYPHIMURIUM, Strain/Indicator: TA1535, Metabolic Activation: HAMSTER, LIVER, S-9, AROCLOR 1254 (30%), Method: PREINCUBATION) “inactive; negative”; (Test System: AMES SALMONELLA TYPHIMURIUM, Strain/Indicator: TA1535, Metabolic Activation: NONE, Method: PREINCUBATION) “inactive; negative”. The mutagenic call (Test System: AMES SALMONELLA TYPHIMURIUM, Strain/Indicator: TA1535, Metabolic Activation: RAT, LIVER, S-9, AROCLOR 1254 (10%), Method: PREINCUBATION) was “inactive; negative” and the mutagenic call (Test System: AMES SALMONELLA TYPHIMURIUM, Strain/Indicator: TA1535, Metabolic Activation: RAT, LIVER, S-9, AROCLOR 1254 (30%), Method: PREINCUBATION) was “inactive; negative”.
As to `CC(C)CC(=O)Nc1snc2ccccc12`, the mutagenic call under setting [2] was “inactive; negative”; the mutagenic call (Test System: AMES SALMONELLA TYPHIMURIUM, Strain/Indicator: TA100, Metabolic Activation: S-9, Method: STANDARD PLATE) is “inactive; negative”; the mutagenic call (Test System: AMES SALMONELLA TYPHIMURIUM, Strain/Indicator: TA1537, Metabolic Activation: NONE, Method: STANDARD PLATE) was “inactive; negative”; the mutagenic call (Test System: AMES SALMONELLA TYPHIMURIUM, Strain/Indicator: TA1537, Metabolic Activation: S-9, Method: STANDARD PLATE) is “inactive; negative”.
With `O=P(O)(O)OC1C(OP(=O)(O)O)C(OP(=O)(O)O)C(OP(=O)(O)O)C(OP(=O)(O)O)C1OP(=O)(O)O` (stereo not drawn), the mutagenic call reads like this: (Test System: MOUSE LYMPHOMA, Strain/Indicator: L5178Y (TK+/TK-), Metabolic Activation: NONE, Method: SUSPENSION/PLATE) “inactive; negative. reevaluation of results: negative”; (Test System: MOUSE LYMPHOMA, Strain/Indicator: L5178Y (TK+/TK-), Metabolic Activation: RAT, LIVER, S-9, AROCLOR 1254, Method: SUSPENSION/PLATE) “inactive; negative. reevaluation of results: negative”.
As for `COCCl`, the mutagenic call reads like this: (End Point: IN VITRO CHROMOSOMAL ABERRATIONS, Test System: CHL CELLS, Metabolic Activation: NONE) “active; positive (structural and ploidy changes)”; (End Point: IN VITRO CHROMOSOMAL ABERRATIONS, Test System: CHL CELLS, Metabolic Activation: RAT, LIVER, S-9, SODIUM PHENOBARBITAL AND 5,6-BENZOFLAVONE) “active; positive (structural changes)”.
Turning to `[O-][Cl+]O`, the mutagenic call (End Point: IN VIVO MICRONUCLEUS, Test System: BONE MARROW POLYCHROMATIC ERYTHROCYTES, Species: MOUSE, Strain/Sex: DDY/MALE, Route: ORAL) was “inactive; negative; significant increase at 150 mg/kg”; the mutagenic call under setting [1] was “inactive; negative”; the mutagenic call (Test System: AMES SALMONELLA TYPHIMURIUM, Strain/Indicator: TA97, Metabolic Activation: RAT, LIVER, S-9, AROCLOR 1254, Method: PREINCUBATION) was “inactive; negative”; the mutagenic call (Test System: AMES SALMONELLA TYPHIMURIUM, Strain/Indicator: TA102, Metabolic Activation: NONE, Method: PREINCUBATION) was “inactive; negative”; the mutagenic call (Test System: AMES SALMONELLA TYPHIMURIUM, Strain/Indicator: TA102, Metabolic Activation: RAT, LIVER, S-9, AROCLOR 1254, Method: PREINCUBATION) was “inactive; negative”.
`OOC1CCCc2ccccc21` (stereo not drawn): the mutagenic call (Test System: AMES SALMONELLA TYPHIMURIUM, Strain/Indicator: TA98, Metabolic Activation: NONE, Method: STANDARD PLATE) is “inactive; negative”; the mutagenic call under setting [2] is “active; positive”; the mutagenic call (Test System: AMES SALMONELLA TYPHIMURIUM, Strain/Indicator: TA102, Metabolic Activation: NONE, Method: STANDARD PLATE) is “inactive; negative”.
As to `[Cl][Sn]([Cl])([Cl])[Cl]`, the mutagenic call reads like this: (Test System: AMES SALMONELLA TYPHIMURIUM, Strain/Indicator: TA98, Metabolic Activation: NONE, Method: SUSPENSION/PLATE) “inactive; negative”; (Test System: AMES SALMONELLA TYPHIMURIUM, Strain/Indicator: TA100, Metabolic Activation: NONE, Method: SUSPENSION/PLATE) “inactive; negative”.
